Experimental data from ChEMBL document CHEMBL1136756, “De novo design, synthesis, and evaluation of novel nonsteroidal phenanthrene ligands for the estrogen receptor” (J Med Chem, 2003).

Legend:
Estrogen receptor beta = Estrogen receptor beta (Homo sapiens, UniProt Q92731)
Description: In vitro displacement of 0.5 nM [3H]17-beta-estradiol from human Estrogen receptor beta

Estrogen receptor = target: T1, Estrogen receptor (Homo sapiens, UniProt P03372)
T1 sequence (P03372 whole entry): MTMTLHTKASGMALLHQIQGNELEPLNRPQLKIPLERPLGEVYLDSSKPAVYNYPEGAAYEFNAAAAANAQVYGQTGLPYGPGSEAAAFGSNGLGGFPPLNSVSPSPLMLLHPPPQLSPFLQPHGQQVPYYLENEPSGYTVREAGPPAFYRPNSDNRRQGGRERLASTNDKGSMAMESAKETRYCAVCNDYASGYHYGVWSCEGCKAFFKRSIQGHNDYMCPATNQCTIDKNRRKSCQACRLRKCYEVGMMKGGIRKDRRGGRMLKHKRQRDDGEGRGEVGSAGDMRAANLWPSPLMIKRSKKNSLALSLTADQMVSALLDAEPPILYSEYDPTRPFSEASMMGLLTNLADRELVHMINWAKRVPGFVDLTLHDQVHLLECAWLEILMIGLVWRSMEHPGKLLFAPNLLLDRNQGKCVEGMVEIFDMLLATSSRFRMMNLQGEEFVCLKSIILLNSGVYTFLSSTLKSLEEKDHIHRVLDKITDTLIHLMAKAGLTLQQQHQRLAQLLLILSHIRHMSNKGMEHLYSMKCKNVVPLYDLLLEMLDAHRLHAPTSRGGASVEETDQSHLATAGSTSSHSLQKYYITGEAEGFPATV
Description: In vitro displacement of 0.5 nM [3H]17-beta-estradiol from human Estrogen receptor alpha

Chain of Estrogen receptor beta (Q92731 whole entry): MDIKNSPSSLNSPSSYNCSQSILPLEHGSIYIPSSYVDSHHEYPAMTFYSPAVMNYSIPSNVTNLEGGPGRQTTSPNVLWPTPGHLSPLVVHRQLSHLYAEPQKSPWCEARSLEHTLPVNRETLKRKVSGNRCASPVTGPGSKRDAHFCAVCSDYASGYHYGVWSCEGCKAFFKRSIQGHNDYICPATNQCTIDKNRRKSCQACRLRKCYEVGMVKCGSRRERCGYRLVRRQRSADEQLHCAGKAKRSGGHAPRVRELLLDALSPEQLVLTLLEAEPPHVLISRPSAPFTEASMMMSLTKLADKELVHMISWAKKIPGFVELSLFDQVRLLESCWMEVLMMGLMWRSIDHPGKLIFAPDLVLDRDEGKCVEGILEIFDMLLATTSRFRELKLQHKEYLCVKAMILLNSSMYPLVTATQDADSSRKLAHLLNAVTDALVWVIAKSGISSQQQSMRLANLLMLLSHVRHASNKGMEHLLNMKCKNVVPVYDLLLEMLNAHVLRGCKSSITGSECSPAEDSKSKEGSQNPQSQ

SMILES	Ki (Estrogen receptor beta) [nM]	Ki (Estrogen receptor) [nM]
CCc1ccc2c(c1)C(c1ccc(OCCN3CCCCC3)cc1)Cc1cc(O)cc(C)c1-2 (stereo unspecified)	190	8.69
CC(C)=C(C)c1ccc2c(c1)c(-c1ccc(OCCN3CCCCC3)cc1)cc1cc(O)cc(C)c12	200	210
Cc1cc(O)cc2cc(-c3ccc(OCCN4CCCCC4)cc3)c3cc(C(C)O)ccc3c12 (stereo unspecified)	190	
C=C(C)c1ccc2c(c1)c(-c1ccc(OCCN3CCCCC3)cc1)cc1cc(O)cc(C)c12	180	290
Cc1cc(O)cc2cc(-c3ccc(OCCN4CCCCC4)cc3)c3cc(C(=O)C(C)C)ccc3c12	> 1000	490
CC(=O)c1ccc2c(c1)c(-c1ccc(OCCN3CCCCC3)cc1)cc1cc(O)cc(C)c12	630	> 1000
